Experimental findings from patent US6054258A, “Photographic elements containing high-boiling esters” (Eastman Kodak Company, priority 1998, dated 2000) are described below.

Values after ≈ are worked out from the molar mass of the structure shown.

Assay type in all cases: physicochemical
Series [1] in a line: Viscosity measured using a Brookfield cone/plate viscometer. As to the method:
(§1) As noted earlier, high-boiling solvents are desired that have low water solubility and low-to-moderate viscosity and that provide suitably bathochromic dye hues, i.e. hues of suitably long wavelengths. In this example, these properties are evaluated for comparison high-boiling solvents known in the art and for high-boiling solvents of this invention. Results are summarized in Table I. Structures of the comparative high-boiling solvents are provided after Table I.
(§2) Water solubilities were obtained from plots of light scattering at 500 nm of dispersions of the high-boiling solvent in water versus concentration. The light scattering density goes to zero at the solubility limit, when dispersions of high-boiling solvent are diluted. Values of log P calculated using MEDCHEM version 3.54 are also given in Table I and serve as rough indicators of water solubility. Viscosities reported in Table I were measured using a Brookfield cone/plate viscometer. Solvents of high polarity and/or polarizability are often needed to provide suitably bathochromic hues for the types of dyes commonly encountered in color photographic materials. Dye C1, whose structure is provided after Table I, is representative of such dyes. The visible absorption maxima (Lambda max) values for C1, measured with a Perkin Elmer Lambda 2S spectrophotometer, are provided in Table I as measure of solvent polarity/polarizability.

The nature of series [2]: Water solubility from light scattering at 500 nm of dispersions of the high-boiling solvent in water. The protocol:
As noted earlier, high-boiling solvents are desired that have low water solubility and low-to-moderate viscosity and that provide suitably bathochromic dye hues, i.e. hues of suitably long wavelengths. In this example, these properties are evaluated for comparison high-boiling solvents known in the art and for high-boiling solvents of this invention.
as §2, with “Values of log P calculated using MEDCHEM version 3.54 are also given in Table I and serve as rough indicators of water solubility.” left out

Series [3] can be described thus: Visible absorption maximum (Lambda max) of Dye C1 in the solvent, measure of solvent polarity/polarizability. Conditions: for Lambda max of Dye C1: Dye C1 in the high-boiling solvent, Perkin Elmer Lambda 2S spectrophotometer; for Lambda max of Dye C1 (in words): relative to B1 and B4; for polarity/polarizability (in words): relative to B1. As to the method:
as §1, §2

Consider `O=C(OCCc1ccccc1)c1ccccc1` [B4], for which, in series [1], the Viscosity was determined as 14 centipoise. Besides, the concentration in solution in series [2] (solubility) came to 10 µg/mL (≈ 44.2 µM). Moreover, in series [3], the “Lambda max of Dye C1” value was found to be 674 nm.
In turn, `CC(C)(COC(=O)c1ccccc1)Cc1ccccc1` [A2] registered a Viscosity in series [1] of 99 centipoise. Besides, in series [3], the “Lambda max of Dye C1” value is 668 nm; the “Lambda max of Dye C1 (in words)” value is “relatively close to those of B1 and B4”.
Take `CCCCC(CC)COC(=O)C1CCCCC1` (stereo not drawn) [B3]: the Viscosity in series [1] stood at 6 centipoise. Moreover, in series [3], the “Lambda max of Dye C1” value is given as 661 nm and the “polarity/polarizability (in words)” value is “reduced polarity/polarizability relative to B1”.
In the case of `O=C(OCCCc1ccccc1)c1ccccc1` [A1], the Viscosity in series [1] came out at 15 centipoise. Moreover, the concentration in solution in series [2] (solubility) came to 5.5 µg/mL (≈ 22.9 µM). In addition, in series [3], the “Lambda max of Dye C1” value is reported as 673 nm; the “Lambda max of Dye C1 (in words)” value was “relatively close to those of B1 and B4”.
As for `CCCCOC(=O)c1ccccc1C(=O)OCCCC` [B1, dibutyl phthalate], the Viscosity in series [1] is 17 centipoise. In addition, the solubility (usually how much of the substance goes into solution per volume) in series [2] came to 9.4 µg/mL (≈ 33.8 µM). In addition, the “Lambda max of Dye C1” value in series [3] turned out to be 674 nm.
Consider `Cc1ccc(C(=O)OCCCc2ccccc2)cc1` [A3], for which the Viscosity in series [1] was found to be 22 centipoise. Besides, the solubility in series [2] came to 3.5 µg/mL (≈ 13.8 µM). Further, in series [3], the “Lambda max of Dye C1” value is given as 670 nm; the “Lambda max of Dye C1 (in words)” value is “relatively close to those of B1 and B4”.
As for `CCCCOC(=O)CCCCCCCCC(=O)OCCCC` [B2], the Viscosity in series [1] is 9 centipoise. The compound also showed a solubility in series [2] of 0.8 µg/mL (≈ 2.54 µM). In series [3], the “Lambda max of Dye C1” value is 658 nm and the “polarity/polarizability (in words)” value is on record as “reduced polarity/polarizability relative to B1”.
